# According to patent US20220081481A1, “USE OF AGENTS CAPABLE OF INDUCING LC3-ASSOCIATED PHAGOCYTOSIS FOR TREATING SUSTAINED INFLAMMATION IN PATIENTS SUFFERING FROM CHRONIC LIVER DISEASE” (INSERM (INSTITUT NATIONAL DE LA SANTÉ ET DE LA RECHERCHE …, priority 2019, published 2022):
# Ends that are not written are not given here.
# Test system: blood monocytes from patients with cirrhosis
# Assay: LC3+ pHrodo+ phagosome (LAPosome) number in blood monocytes from patients with cirrhosis
# Format: cell-based, human
# Conditions: 10 mM 3-MA, 30 μM N8 peptide, data not shown
# Experimental: Human blood monocytes. Human monocytes were isolated from freshly isolated PBMC, using EasySep human monocyte enrichment kit (STEMCELL Technologies, 19058), and CD14+CD16+ monocytes were isolated by immunomagnetic negative selection according to the manufacturer's instructions. Cell treatment. Human monocytes, THP1-XBlueTM-CD14 (Invivogen, Catalog #[…] THP1-FcγRIIA+-CD14+(kindly provided by Novimmune) monocytes were used. When indicated cells were exposed to either 30 μM chloroquine diphosphate (Sigma, C6628), 10 mM 3-Methyladenine (3-MA, Sigma, M9281-100 mg), 10 mM Diphenyleneiodonium chloride (DPI, Sigma, D2926-10 mg), or 10 mg/ml IVIg (Privigen, 100 mg/ml) for 4 hrs at 37° C., as indicated. […] For quantification, images were acquired by confocal microscopy (Confocal Zeiss LSM 780) equipped with a 63× oil immersion objective. For each condition, 10 to 15 fields were randomly selected, and the number of LC3+ signal localized around pHrodo+ phagosomes (LC3+ pHrodo+) was quantified in at least 40 to 60 cells. Unless otherwise indicated, results are expressed as number of LC3+ phagosomes/individual normalized to 100 cells. […]
row,Compound,LC3+ phagosome number
1,"Cn1cnc(N)c2ncnc1-2 [3-MA, 3-Methyladenine]",significant reduction
2,"N8 peptide: Tat-conjugated peptide of eight N-terminal amino acids (3-10) of p22phox that blocks the Rubicon-p22phox interaction (QIEWAMWA; also: Tat cell-penetrating peptide conjugate, attachment not given here; UniProt P13498 3-10, looked up, fragment)",significant reduction
